Structures are written as SMILES.

The data set can be described thus: gradient 5% acetonitrile 3 min, to 50% in 2 min, to 85% in 15 min, held 3 min, 100 µL/min. The settings on record: column: Zorbax Extend-C18 2.1 x 50 mm; eluents: water / acetonitrile, 0.1% formic acid. In outline:
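The mobile phases were water and acetonitrile, each with 0.1% formic acid, pumped at 100 μL/min through a Zorbax Extend-C18 column (2.1 × 50 mm, 1.8 μm). Pure standards were injected as mixtures of ~100 molecules and detected by a quadrupole time-of-flight mass spectrometer in positive and negative ionization mode. Retention time came from computationally picked adduct peaks, each inspected by hand.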
As to `Cc1cc(C(=O)N2CCCn3cc(-c4ccccc4F)nc32)nn1C`, the RP-LC retention time worked out at 656 s.
The compound `COc1ccc(-c2noc(-c3cccn(CC(=O)NC(C)C)c3=O)n2)cc1OC` came in with an RP-LC retention time of 688 s.
In the case of `COc1ccc(-c2nc(N3CCOCC3)c3ccccc3n2)cc1` it was 669 s; in that of `CCCN1C(=O)CCc2cc(NS(=O)(=O)c3ccc(CC(C)C)cc3)ccc21`, 1030 s.
In turn, `COc1ccccc1OC(C)C(=O)N1CCN(c2cc(C)n3cnnc3n2)CC1` (centres undefined) displayed an RP-LC retention time of 599 s.
For `O=C(NCCn1c(=O)n(Cc2ccccc2)c2cccnc21)c1ccoc1`, the RP-LC retention time was determined as 725 s.
In the case of `CCN(C(C)=O)c1nc(-c2ccc(Br)cc2)cs1` it was 1170 s; in that of `CCOCC(=O)N1CCCN(C2=NS(=O)(=O)C(c3ccc(Cl)cc3)=C2C)CC1`, 761 s.
For `Cc1ccccc1Oc1nccn2c(=O)n(CC(=O)Nc3ccc(F)cc3F)nc12` the value was 829 s.
For `COC(=O)c1ccc(Cl)cc1NC(=O)N(C)Cc1nc2cc(C(=O)N(C)C)ccc2n1C`, the RP-LC retention time came to 705 s.
In the case of `CCOC(=O)c1nc2cc(OC)c(OC)cc2[nH]c1=O` it was 620 s; in that of `Cc1ccc(S(=O)(=O)N2CC(=O)N(Cc3ccccc3)C(C)(C(=O)NCc3ccccc3)C2)cc1` (centres undefined), 1010 s.
In the case of `O=C(CN1CCN(C(=O)CCc2ccccc2)CC1)c1cccs1` it was 550 s; in that of `CCCNC(=O)N1CCCN(C2CCN(Cc3ccccc3)C2=O)CC1` (centres undefined), 535 s; in that of `Cc1cc(C(=O)NCc2ccc(F)cc2)nc2cc(-c3cccs3)nn12`, 1090 s.
For `Cc1nnc(N2CCCC(C(=O)NCCN3CCCC3)C2)c2nn(-c3ccc(Cl)cc3)c(C)c12` (centres undefined) the value was 591 s; for `Cc1cc2c(cc1S(=O)(=O)N1CCN(c3ccccn3)CC1)n(C)c(=O)n2C`, 606 s.
The compound `COCCN1C(=O)[C@H]2CN(Cc3ccc(OC)c(Br)c3)C[C@H]2C1=O` yielded an RP-LC retention time of 616 s.
For `O=C(c1ccc2c(c1)OCO2)N1C[C@@H](CO)[C@H](c2ccncc2)C1` the value was 558 s; for `CCCNC(=O)C1CCN(c2ccc(SCC(=O)Nc3ccccc3C(=O)OC)nn2)CC1`, 666 s.
`CCCCCCCCN[C@H](C)[C@@H](O)c1ccc(SC(C)C)cc1` gave an RP-LC retention time of 1030 s.
In the case of `COc1cccc(OCC(O)CN2CCN(c3ccc(Cl)cc3)CC2)c1` (centres undefined) it was 724 s; in that of `O=c1n(Cc2ccccc2F)nc2c(S(=O)(=O)N3CCCCC3)cccn12`, 891 s; in that of `COc1cc2c(C(=O)OCCc3ccccn3)cn(-c3ccccc3)c(=O)c2cc1OC`, 670 s.
`Cc1oc(C2CCN(C(=O)Nc3cc(F)cc(F)c3)CC2)nc1C(=O)N1CCCC1` showed an RP-LC retention time of 917 s.
In the case of `Cc1[nH]c(C(=O)N2CCC(CC(=O)NCc3ccccc3)CC2)c(C)c1C(=O)OC(C)C` it was 802 s; in that of `CC(C)NC(=O)C1CCCN(c2nc3ncn(CC(=O)Nc4ccc(F)c(F)c4)c(=O)c3s2)C1` (centres undefined), 716 s; in that of `CCCn1c(=O)sc2cc(S(=O)(=O)N3CCC(C(=O)NC4CCC(C)CC4)CC3)ccc21` (centres undefined), 1030 s.
For `Cc1ccc2nc(-c3cccc(Cl)c3)c(Nc3ccccc3C)n2c1` the value was 807 s; for `COCCNC(=O)CCc1c(-c2ccc(Cl)cc2)nc2ccccn12`, 590 s.
For `O=C(NC1CCCCC1)c1ccc2ccnc(N3CCN(c4ccccc4)CC3)c2c1` the value was 851 s; for `CCCCN(C)C(=O)c1ccc2c(c1)NC(=O)C(CC(C)C)N2` (centres undefined), 581 s.
Turning to `CNC(=O)C1CCN(C(=O)Nc2ccc(NC(=O)Nc3ccc(C)c(C)c3)cc2)CC1`, the RP-LC retention time was found to be 700 s.
On to `Cc1ccc(C2NC(=O)N(CC(=O)Nc3ccc4c(c3)CCC4)C3=C2C(=O)OC3)cc1` (centres undefined), for which the RP-LC retention time is 856 s.
For `CCOc1ccc(Nc2nc(C(=O)Nc3ccc(S(N)(=O)=O)cc3)cs2)cc1` the value was 761 s; for `O=S(=O)(c1cccc2nsnc12)N1CCc2nc(-c3ccccc3)ncc2C1`, 1000 s; for `CC1CCN(c2cnn(CC(=O)Nc3ccc4c(c3)CCC4)c(=O)c2Cl)CC1`, 1030 s.
As to `CC(=O)N1CCc2ccccc2C1C(=O)NCc1cccs1` (centres undefined), the RP-LC retention time was 720 s.
In the case of `O=C(NCc1nnc(SCc2c(F)cccc2Cl)o1)c1cccc(C(F)(F)F)c1` it was 933 s; in that of `CN(C)C(=O)c1ccc2c(c1)nnn2CCNC(=O)Nc1cccc(Br)c1`, 678 s; in that of `CCN1CCc2ncnc(SCC(=O)Nc3ccc(Cl)cc3C(F)(F)F)c2C1`, 597 s.
In the case of `O=c1n(Cc2cccc(Cl)c2)nc2c(S(=O)(=O)N3CCc4ccccc4C3)cccn12` it was 1010 s; in that of `CCOc1ccc(NC(=O)c2cc3c(=O)n(CC(C)C)c4ccccc4n3n2)cc1`, 1150 s; in that of `O=C(COc1cccc2c1CCN(Cc1ccc(F)cc1)C2=O)Nc1ccc2c(c1)OCO2`, 846 s.
In the case of `O=C(c1ccn[nH]1)N1C[C@@H]2C(=O)N(CCc3ccccc3)C(=O)[C@@H]2C1` it was 656 s; in that of `CCCOc1c(C(=O)OC)sc2ccc(NC(=O)c3cc(-c4cccs4)[nH]n3)cc12`, 1110 s; in that of `Cc1cccc(NC(=O)Cn2ccc3ccn(C)c3c2=O)c1C`, 761 s.
Compound `CCn1cc(S(=O)(=O)N2CC(Cn3c(C)cnc3-c3cccnc3)C2)cn1` had an RP-LC retention time of 576 s.
For `O=C(CN1C(=O)CCCc2ccccc21)N1CCN(C(=O)c2ccco2)CC1` the value was 678 s; for `O=C1NCCN2CC3(CCN(S(=O)(=O)c4cccc5cccnc45)CC3)CC12` (centres undefined), 581 s; for `COc1cccc(-c2cc3c(=O)n(CC(O)c4ccccc4)ccn3n2)c1` (centres undefined), 860 s.
In the case of `Cc1cc(C)n(-c2c3c(nc4c(-c5ccccc5)c(C)nn24)CCC3)n1` it was 982 s.
In turn, `CCOC(=O)C1=CN(Cc2ccccc2)S(=O)(=O)N=C1C` gave an RP-LC retention time of 970 s.
`CC(C)Oc1ccccc1CN1CC(F)(F)C[C@H]1COc1ccncc1` yielded an RP-LC retention time of 752 s.
For `Cc1cc(C(=O)NCCc2ccc(Cl)cc2)c2c(=O)n(C)c(=O)n(C)c2n1` the value was 835 s; for `CC1CN2C=NC(N3CCN(C(=O)c4ccccc4)CC3)=CC2=N1` (centres undefined), 580 s.
For `CC(=O)Nc1ccc(-n2cnc(C(=O)N3CCN(c4ccc(Cl)cc4)CC3)c2)nc1` the value was 751 s.
In the case of `CCOC(=O)c1c(C)[nH]c(C)c1S(=O)(=O)N1CCC(C(=O)NCc2cccc(C)c2)CC1` it was 668 s.
Consider `Cc1nnc(N2CCCC(C(=O)NC(C)c3ccccc3)C2)c2nn(-c3ccc(Cl)cc3)c(C)c12` (centres undefined), for which the RP-LC retention time came out at 795 s.
The compound `Cc1ccc(-c2noc(-c3nnn(Cc4nc(-c5cccc(Cl)c5)oc4C)c3C)n2)cc1` registered an RP-LC retention time of 908 s.
As for `Clc1ccc(-c2ccc(CNCc3ccccn3)o2)c(Cl)c1`, the RP-LC retention time worked out at 734 s.
For `CCOc1ccc(S(=O)(=O)N(C)C)c2ccccc12` the value was 950 s.
For `CC(C)c1nnc(-c2cccnc2N2CCN(C(=O)CC3CCCC3)CC2)o1` the value was 872 s; for `C=CCN(CC=C)C(=O)Nc1cc(OC)ccc1OC`, 962 s; for `Cc1cccc(NC(=O)Cn2nc3nc(N4CCCC(C)C4)ccn3c2=O)c1` (centres undefined), 791 s.
For `CCS(=O)(=O)c1nc2ccc(NS(=O)(=O)c3ccccc3F)cc2s1` the value was 835 s.
On to `COc1ccc(N2CCN(C(=O)c3cc4c(s3)CN(C3CCCC3)C4)CC2)cc1`, for which the RP-LC retention time came to 623 s.
For `Cc1ccc(-c2nc3n(CC(=O)NC4CCCC4)c4c(c(=O)n3n2)CCC4)cc1` the value was 789 s; for `O=C(N[C@H]1C[C@@H]2C[C@H]1CN2S(=O)(=O)c1ccccc1C(F)(F)F)c1ccccc1`, 921 s; for `O=C(C1CCN(c2cnc3nccnc3c2)CC1)N1CCN(c2cccc(Cl)c2)CC1`, 833 s.
In the case of `CCc1ccc(CNC(=O)CCCN2C(=O)CCn3nc(C)cc32)cc1` it was 726 s.
Turning to `CCN(CC)CCNC(=O)c1cc(Br)c(N)cc1OC`, the RP-LC retention time was 645 s.
In the case of `CCC(Oc1ccccc1)C(=O)Nc1nc(-c2ccc(Cl)cc2)cs1` (centres undefined) it was 1240 s; in that of `Cc1ccc(-n2ncc3c(NCCN(C)C)ncnc32)cc1C`, 648 s.
In the case of `O=C(NCCc1cccs1)C1CCN(S(=O)(=O)c2ccc(-c3noc(C4CC4)n3)cc2)CC1` it was 946 s.
In the case of `CCN1CCCC1CNC(=O)c1nnc(-c2ccc(S(=O)(=O)N3CCCCC3)cc2)o1` (centres undefined) it was 645 s.
Regarding `CC(=O)Nc1ccc(OCC(O)CN2CCC(Cc3ccccc3)CC2)cc1` (centres undefined), the RP-LC retention time came out at 577 s.
For `COC(=O)c1ccc2c(=O)n(-c3cc(OC)cc(OC)c3)c(N3CCSCC3)nc2c1` the value was 983 s; for `O=C(CN1C(=O)CCCc2cc(S(=O)(=O)N3CCCCC3)ccc21)Nc1ccccc1`, 885 s.

The values are drawn from the METLIN SMRT retention time set (Domingo-Almenara et al. 2019).
